# Measurements: patent publication US3984501A, “Phenyl- and benzylphosphonate esters” (priority 1975, dated 1976)
# Like-named read-outs stand apart in the source and are kept apart here.
# Assays:
# [1] = system: PGE2-induced contraction of isolated guinea pig ileum (GPI) and isolated rat fundus (RF); assay: Inhibition of PGE2-induced contraction of isolated smooth muscle preparations (anti-prostaglandin activity); assay type: cell-based; details: for IC50: isolated GPI or RF (tissue not specified per value), incubation 15 min initial exposure, 5 min each successive increment, read-out: I.C.50 (vs PGE2)
# Method: (§1) The following compounds were tested for their effects on isolated smooth muscle preparations ##SPC18##
# (§2) the techniques for setting up the isolated guinea pig ileum (GPI) and isolated rat fundus (RF) were those described in Pharmacological Experiments on Isolated Preparations (E. S. Livingston Ltd., Publishers). The tissues were bathed in Krebs solution and isotonic contractions were recorded. To elicit a maximal contraction after the initial equilibration period, the tissue (GPI or RF) was exposed to 20 ng/ml acetylcholine (ACh). After a dose-dependent pattern was established with ACh, the tissue was exposed to 20 ng/ml of PGE2 in order to elicit a maximal prostaglandin-induced contraction. Test doses of PGE2 and ACh which cause 50% of the maximal contractions were determined.
# (§3) To test a compound for anti-prostaglandin activity, the tissue was incubated with a compound for a fixed period of time (15 minutes for the initial exposure to the test drug and 5 minutes for each successive increment in concentration) followed by the test dose of PGE2 or ACh to elicit a tissue contraction. Inhibition of contraction was measured as percent reduction in the magnitude of the response to the test dose of PGE2. The concentration of drug which inhibited the test concentration of PGE2 by 50% (I.C.50) was determined from the dose-response curve obtained by plotting concentration versus percent inhibition. Test contractions with ACh determined whether any decrease in contraction amplitude was specific for prostaglandin-induced contractions or a general deterioration of tissue function. The term selectivitiy refers to % inhibition of ACh-induced contractions at compound dosages which inhibi the PGE2 -induced contraction by the indicated percentage.
# [2] = system: ACh-induced contractions of isolated guinea pig ileum (GPI) and isolated rat fundus (RF); assay: Inhibition of ACh-induced contraction of isolated smooth muscle (selectivity); assay type: cell-based; details: for Selectivity: % inhibition of ACh-induced contractions at dosages which inhibit the PGE2-induced contraction by 50%: at 50% inhibition of PGE2-induced contraction; for Selectivity: % inhibition of ACh-induced contractions at dosages which inhibit the PGE2-induced contraction by 70%: at 70% inhibition of PGE2-induced contraction; for Selectivity: % inhibition of ACh-induced contractions at dosages which inhibit the PGE2-induced contraction by 90%: at 90% inhibition of PGE2-induced contraction
# Method: as §1, §2, §3
# [3] = Systemic toxicity in male Swiss Webster mice; assay type: in vivo, mouse; details: mouse, in vivo, in saline, 24 hours, read-out: L.D.50 at 24 hours
# Method: (§4) Compounds 1-3 were tested for systemic toxicity. Male Swiss Webster mice were injected (i.p. or p.o.) with the test compound dissolved in saline (0.2 ml). The mice were examined every half hour for the first two hours after treatment and every hour for the following four hours. Thereafter the mice were examined irregularly, with a final examination at the end of the 48-hour test.
# male Swiss Webster mice = assay: Systemic toxicity in male Swiss Webster mice; assay type: in vivo, mouse; details: from Table 2, vs compound 1
# Method: as §4
# [4] = Topical toxicity in hairless mice; details: mouse, in vivo, topical or ocular, topically, 0.1 ml of 90% PEG, read-out: L.D.50 at 24 hours
# Method: Topical toxicity was determined at a single dosage level on two hairless mice. The animals were restrained with neck collars. The test compound was applied in a total volume of 0.1 ml of 90% PEG (10% H2 O) spread uniformly over the back by means of a Q-tip.
Compound,IC50 [1] [nM],Selectivity: % inhibition of ACh-induced contractions at dosages which inhibit the PGE2-induced contraction by 50% [2] [%],Selectivity: % inhibition of ACh-induced contractions at dosages which inhibit the PGE2-induced contraction by 70% [2] [%],Selectivity: % inhibition of ACh-induced contractions at dosages which inhibit the PGE2-induced contraction by 90% [2],LD50 at 24 h ([3]; ip) [mg/kg],toxicity relative to compound 1 (male Swiss Webster mice),IC50 ([1]; Cavia porcellus) [nM],LD50 at 24 h ([3]; po) [mg/kg],LD50 at 24 h [4] [mg/kg],"times more potent than compound 1 ([1]; potency ratio vs compound 1, from Table 1)","times more potent than compound 2 ([1]; potency ratio vs compound 2, from Table 1)"
O=C(c1ccc(OP(=O)(O)c2ccccc2)cc1)C(Cc1ccccc1)Cc1ccc(Cl)cc1 (centres unmarked) [Compound 2],200,0,0,30%,361,considerably less toxic than compound 1,,,,,
"O=C(c1ccc(OP(=O)(O)Oc2ccccc2)cc1)C(Cc1ccccc1)Cc1ccc(Cl)cc1 (centres unmarked) [Compound 1, reference compound]",,0,0,0%,194,,47,235,> 4300,,
O=C(c1ccc(OP(=O)(O)Cc2ccccc2)cc1)C(Cc1ccccc1)Cc1ccc(Cl)cc1 (centres unmarked) [Compound 3],6.1,0,0,10-15%,408,considerably less toxic than compound 1,,715,> 4350,about 8 times,approximately 30 times
